Assay results published in US20040142981A1, “Antibacterial benzoic acid derivatives” (priority 2002, published 2004).
Values after ≈ are worked out from the molar mass of the structure shown.

Key:
SAUR 9218 = assay: MIC by standard agar dilution method; assay type: cell-based; details: Mueller Hinton agar, incubated overnight at 35° C., lowest concentration that inhibits visible growth
Procedure: MIC Test Method The in vitro MICs of test compounds were determined by a standard agar dilution method. A stock drug solution of each analog was prepared in the preferred solvent, usually DMSO:H2O (1:3). Serial 2-fold dilutions of each sample are made using 1.0 ml aliquots of sterile distilled water. To each 1.0 ml aliquot of drug was added 9 ml of molten Mueller Hinton agar medium. The drug-supplemented agar was mixed, poured into 15×100 mm petri dishes, and allowed to solidify and dry prior to inoculation. Vials of each of the test organisms are maintained frozen in the vapor phase of a liquid nitrogen freezer. Test cultures are grown overnight at 35° C. on the medium appropriate for the organism. Colonies are harvested with a sterile swab, and cell suspensions are prepared in Trypticase Soy broth (TSB) to equal the turbidity of a 0.5 McFarland standard. A 1:20 dilution of each suspension was made in TSB. The plates containing the drug supplemented agar are inoculated with a 0.001 ml drop of the cell suspension using a Steers replicator, yielding approximately 10^4 to 10^5 cells per spot. The plates are incubated overnight at 35° C. Following incubation the Minimum Inhibitory Concentration (MIC μg/ml), the lowest concentration of drug that inhibits visible growth of the organism, was read and recorded.

SMILES	MIC (SAUR 9218) [µg/mL]	melting point [°C]
N#Cc1ccc(NC(=O)c2cccc(S(=O)(=O)N3CCOCC3)c2)c(-c2nnn[nH]2)c1 [Example 20, N-[4-cyano-2-(1H-tetraazol-5-yl)phenyl]-3-(morpholin-4-ylsulfonyl)benzamide]	64 (≈ 146 µM)	230 to 232
CC(C)(C)C(=O)OCn1nnc(-c2cc(Br)ccc2NC(=O)c2cccc(S(=O)(=O)N3CCOCC3)c2)n1 [Example 21, [5-(5-bromo-2-{[3-(morpholin-4-ylsulfonyl)benzoyl]amino}phenyl)-2H-tetraazol-2-yl]methyl pivalate]	> 64	210 to 212
N#Cc1ccc(NC(=O)c2ccc(S(=O)(=O)N3CCc4cc(Cl)ccc43)cc2)c(-c2n[nH]c(=O)o2)c1 [Example 22, 4-[(5-chloro-2,3-dihydro-1H-indol-1-yl)sulfonyl]-N-[4-cyano-2-(5-oxo-4,5-dihydro-1,3,4-oxadiazol-2-yl)phenyl]benzamide]	32 (≈ 61.3 µM)	262 to 264

The next compounds have a lower MIC (SAUR 9218) than those just listed; values first:

MIC (SAUR 9218) [µg/mL]	melting point [°C]	SMILES
8 (≈ 14.9 µM)	225 to 229	N#Cc1ccc(NC(=O)c2ccc(S(=O)(=O)N3CCc4cc(Cl)ccc43)cc2)c(-c2n[nH]c(=S)o2)c1 [Example 23, 4-[(5-chloro-2,3-dihydro-1H-indol-1-yl)sulfonyl]-N-[4-cyano-2-(5-thioxo-4,5-dihydro-1,3,4-oxadiazol-2-yl)phenyl]benzamide]
0.125 (≈ 0.266 µM)	293 to 295	N#Cc1ccc(NC(=O)c2cc3cccc(S(=O)(=O)c4ccccc4)c3[nH]2)c(-c2nnn[nH]2)c1 [Example 25, N-[4-cyano-2-(1H-tetraazol-5-yl)phenyl]-7-(phenylsulfonyl)-1H-indole-2-carboxamide]
